This note sets out measurements from patent US12433876B2, “Septin inhibitors for treatment of cancers” (UNIVERSITY OF ROCHESTER, priority 2019, dated 2025).

Test [1] concerns BXPC-3 cells. In words: Live/Dead dye flow cytometry, BXPC-3. Type of test: cell-based, human. The conditions noted are these: BXPC-3, 3 μM, 48 hours. As for the experimental part:
Cell Lines, Cell Culture, and Reagents. PANC-1, BXPC-3 and CAPAN-1, SKOV-3, MCF7, MDA-MD-231 cells were obtained from ATCC and maintained in DMEM, RPMI-1640 and IMDM supplemented with 10% fetal calf serum penicillin (100 units/mL), and streptomycin (100 μg/mL) at 37° C. with 5% CO2 in a humidified incubator. JIMT-1 cells were purchased from AddexBio Inc, USA (catalog number: C0006005) and maintained in 10% FBS and antibiotic supplemented DMEM. […] The reaction was monitored using thin-layer chromatography plates with DCM-MeOH or pure ethyl acetate as eluent. Spots were monitored in a UV chamber. […] ICM scores for each compound and their poses were calculated and compared with FCF. […] Cell viability of PANC-1, BXPC-3 and CAPAN-1 pancreatic cancer cells treated with UR214-9 was measured using the Cell Titre96R Aqueous One Solution Cell Proliferation Assay (Promega Corp., catalog number: G3580) following the procedure published earlier. […] The cells were analyzed by a 305 flow cytometer and relative live and dead cell population was calculated by inputting equal number of cells in both vehicle and control group.
On the technique in general: In flow cytometry, cells or beads pass a laser one at a time.

Test [2] concerns BXPC-3 cells. In words: Cell cycle analysis (PI, flow cytometry), BXPC-3. The conditions noted are these: BXPC-3, 100 nM. The format is cell-based, human. As for the experimental part:
For cell cycle analysis, BXPC-3 and PANC-1 and JIMT-1 cells (100,000/well) were seeded overnight in a 6 well dishes and allowed to adhere overnight. Media was replaced with fresh complete medium supplemented with DMSO or UR214-9 (100 nM and 3 μM) and cells were incubated for 72 hours. The media containing the drugs was removed and cells were washed twice with PBS and trypsinized gently. The cells were collected in 15 mL tubes, complete DMEM media was added to block trypsin and cells were centrifuged. The supernatants were removed and cells were gently treated with 70% cold-EtOH for 30 minutes. The fixed cells were centrifuged and the pellets obtained were collected in flow cytometry tubes and stained with preformulated PI/RNase solution (Cell Signaling Technology, catalog number: 4087s) for 30 minutes. The PI content was analyzed using a flow cytometer. Data was processed using Flowjo software.

The next test deals with T1, septin-7 (Homo sapiens, UniProt Q16181).
T1 construct: investigate the response of other septin family members in PANC-1 cells upon treatment with UR214-9; endogenous in cells; host or cells: PANC-1, JIMT-1, SKOV-3 (confocal); PANC-1 (immunoblot)
T1 sequence (Q16181 whole entry): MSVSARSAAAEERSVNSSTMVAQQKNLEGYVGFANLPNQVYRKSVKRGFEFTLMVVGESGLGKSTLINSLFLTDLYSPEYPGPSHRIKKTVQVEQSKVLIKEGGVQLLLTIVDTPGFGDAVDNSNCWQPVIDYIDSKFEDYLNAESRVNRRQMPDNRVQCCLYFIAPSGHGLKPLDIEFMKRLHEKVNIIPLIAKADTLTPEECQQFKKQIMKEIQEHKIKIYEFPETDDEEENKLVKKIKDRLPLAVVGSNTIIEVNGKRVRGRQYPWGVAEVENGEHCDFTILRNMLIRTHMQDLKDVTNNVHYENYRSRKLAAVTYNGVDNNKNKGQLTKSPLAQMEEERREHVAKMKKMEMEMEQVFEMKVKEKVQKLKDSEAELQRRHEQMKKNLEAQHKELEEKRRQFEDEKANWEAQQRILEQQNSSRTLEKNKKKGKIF
Put plainly: Confocal analysis of septin-7. The format is cell-based. Conditions: PANC-1 cells.

In the case of `O=C(Nc1cc(Cl)nc(Cl)c1)Nc1cccc(SC(F)(F)F)c1F` [UR214-9], the dead cells in the test on BXPC-3 cells [1] is 29.4%. Besides, in the test on BXPC-3 cells [2], the cell cycle distribution entry was “no change in cell cycle distribution”. The “septin-7 (confocal)” value at septin-7 was “reduced expression”.
